# Where two headings read alike, the source gives them in different places. Marks after values point to notes of the source that are not given here.
# Columns and labels:
# Assay in all cases: MIC, broth microdilution
# [1] = tested on: 207 Enterobacterales including carbapenem-resistant isolates; type: cell-based; conditions: for MIC90: read-out: MIC90; for CLSI MIC interpretation I (intermediate) / CLSI MIC interpretation R (resistant) / CLSI MIC interpretation S (susceptible): CLSI breakpoints, marked c: breakpoints for β-lactam alone, tigecycline: FDA breakpoints; for MIC50: read-out: MIC50
# [2] = tested on: MEM-nonsusceptible Enterobacterales; type: cell-based; conditions: MEM-nonsusceptible Enterobacterales (127), cefiderocol 126 isolates; for MIC90: read-out: MIC90; for CLSI MIC interpretation I (intermediate) / CLSI MIC interpretation R (resistant) / CLSI MIC interpretation S (susceptible): CLSI breakpoints, marked c: breakpoints for β-lactam alone, tigecycline: FDA breakpoints; for MIC50: read-out: MIC50
# [3] = tested on: serine-carbapenemase-producing isolates (Enterobacterales); type: cell-based; conditions: Enterobacterales with serine-carbapenemases (80); for MIC50: read-out: MIC50; for MIC90: read-out: MIC90; for CLSI MIC interpretation I (intermediate) / CLSI MIC interpretation R (resistant) / CLSI MIC interpretation S (susceptible): CLSI breakpoints, marked c: breakpoints for β-lactam alone, tigecycline: FDA breakpoints
# [4] = tested on: MBL-producing isolates (Enterobacterales); type: cell-based; conditions: for MIC90: read-out: MIC90; for CLSI MIC interpretation I (intermediate) / CLSI MIC interpretation R (resistant) / CLSI MIC interpretation S (susceptible): CLSI breakpoints, marked c: breakpoints for β-lactam alone, tigecycline: FDA breakpoints; for MIC50: read-out: MIC50
# [5] = tested on: 55 isolates of A. baumannii; type: cell-based, Acinetobacter baumannii; conditions: Acinetobacter baumannii (55); for MIC90: read-out: MIC90; for MIC50: read-out: MIC50
# 96 P. aeruginosa = type: cell-based, Pseudomonas aeruginosa; conditions: Pseudomonas aeruginosa (96); for MIC50: read-out: MIC50; for MIC90: read-out: MIC90
# [6] = tested on: MEM-, imipenem/relebactam-, and ceftolozane/tazobactam-nonsusceptible P. aeruginosa; type: cell-based, Pseudomonas aeruginosa; conditions: for MIC50 / MIC90: Pseudomonas aeruginosa; for MIC50: read-out: MIC50; for MIC90: read-out: MIC90; for CLSI MIC interpretation I (intermediate) / CLSI MIC interpretation R (resistant) / CLSI MIC interpretation S (susceptible): marked c: breakpoints for β-lactam alone
# [7] = tested on: MEM-nonsusceptible Enterobacterales with serine-carbapenemases; type: cell-based; conditions: MEM-nonsusceptible Enterobacterales with serine-carbapenemases (58); for CLSI MIC interpretation I (intermediate) / CLSI MIC interpretation R (resistant) / CLSI MIC interpretation S (susceptible): CLSI breakpoints, marked c: breakpoints for β-lactam alone, tigecycline: FDA breakpoints; for MIC50: read-out: MIC50; for MIC90: read-out: MIC90
# [8] = tested on: MEM-nonsusceptible Enterobacterales with metallo-carbapenemases; type: cell-based; conditions: MEM-nonsusceptible Enterobacterales with metallo-carbapenemases (55), cefiderocol 54 isolates; for MIC50: read-out: MIC50; for MIC90: read-out: MIC90
# [9] = fixed concentration (μg/mL) in label
# [10] = Enterobacterales with metallo-carbapenemases (74), cefiderocol 73 isolates, fixed concentration (μg/mL) in label
# [11] = Imipenem/relebactam-nonsusceptible Pseudomonas aeruginosa (43), fixed concentration (μg/mL) in label
# [12] = MEM-nonsusceptible Pseudomonas aeruginosa (76), fixed concentration (μg/mL) in label
# [13] = All Enterobacterales (207), cefiderocol 205 isolates
# [14] = Enterobacterales with metallo-carbapenemases (74), cefiderocol 73 isolates
# [15] = CLSI breakpoints, marked c: breakpoints for β-lactam alone
# [16] = Imipenem/relebactam-nonsusceptible Pseudomonas aeruginosa (43), CLSI breakpoints
# [17] = MEM-nonsusceptible Pseudomonas aeruginosa (76), CLSI breakpoints
# [18] = CLSI breakpoints, marked c: breakpoints for β-lactam alone, tigecycline: FDA breakpoints
smiles,measurement,setting,value
O=C(O)c1cn(C2CC2)c2cc(N3CCNCC3)c(F)cc2c1=O [Ciprofloxacin],MIC90,[1],> 64 mg/L
same,MIC90,[2]; [9],> 64 mg/L
same,MIC50,[3]; [9],32 mg/L
same,MIC90,[3]; [9],> 64 mg/L
same,MIC90,[4]; [10],> 64 mg/L
same,MIC90,[5]; [9],> 64 mg/L
same,MIC50,96 P. aeruginosa; [9],16 mg/L
same,MIC90,96 P. aeruginosa; [9],64 mg/L
same,MIC50,[6]; [11],32 mg/L
same,MIC90,[6]; [11],64 mg/L
same,MIC50,[6]; [12],16 mg/L
same,MIC90,[6]; [12],64 mg/L
same,MIC50,"[6]; Table 2, broth microdilution",32 mg/L
same,MIC90,"[6]; Table 2, broth microdilution",64 mg/L
NCC[C@H](O)C(=O)N[C@@H]1C[C@H](N)[C@@H](O[C@H]2O[C@H](CN)[C@@H](O)[C@H](O)[C@H]2O)[C@H](O)[C@H]1O[C@H]1O[C@H](CO)[C@@H](O)[C@H](N)[C@H]1O [Amikacin],CLSI MIC interpretation I (intermediate),[1]; [13],6.3%
same,CLSI MIC interpretation R (resistant),[1]; [13],36.7%
same,CLSI MIC interpretation S (susceptible),[1]; [13],57%
same,MIC50,[1],4 mg/L
same,MIC90,[1],> 64 mg/L
same,CLSI MIC interpretation I (intermediate),[2],7.9%
same,CLSI MIC interpretation R (resistant),[2],52%
same,CLSI MIC interpretation S (susceptible),[2],40.2%
same,MIC50,[2]; [9],16 mg/L
same,MIC90,[2]; [9],> 64 mg/L
same,CLSI MIC interpretation I (intermediate),[3],8.8%
same,CLSI MIC interpretation R (resistant),[3],37.5%
same,CLSI MIC interpretation S (susceptible),[3],53.8%
same,MIC50,[3]; [9],4 mg/L
same,MIC90,[3]; [9],64 mg/L
same,CLSI MIC interpretation I (intermediate),[4]; [14],5.4%
same,CLSI MIC interpretation R (resistant),[4]; [14],52.7%
same,CLSI MIC interpretation S (susceptible),[4]; [14],41.9%
same,MIC50,[4]; [10],16 mg/L
same,MIC90,[4]; [10],> 64 mg/L
same,CLSI MIC interpretation I (intermediate),[5]; [15],14.5%
same,CLSI MIC interpretation R (resistant),[5]; [15],56.4%
same,CLSI MIC interpretation S (susceptible),[5]; [15],29.1%
same,MIC50,[5]; [9],64 mg/L
same,MIC90,[5]; [9],> 64 mg/L
same,CLSI MIC interpretation I (intermediate),96 P. aeruginosa; [15],7.3%
same,CLSI MIC interpretation R (resistant),96 P. aeruginosa; [15],29.2%
same,CLSI MIC interpretation S (susceptible),96 P. aeruginosa; [15],63.5%
same,MIC50,96 P. aeruginosa; [9],8 mg/L
same,MIC90,96 P. aeruginosa; [9],> 64 mg/L
same,CLSI MIC interpretation (%) I,"[6]; I, intermediate (including susceptible dose-dependent), CLSI breakpoints, last subgroup of Table 2",11.1%
same,CLSI MIC interpretation I (intermediate),[6]; [16],9.3%
same,CLSI MIC interpretation R (resistant),[6]; [16],58.1%
same,CLSI MIC interpretation S (susceptible),[6]; [16],32.6%
same,CLSI MIC interpretation I (intermediate),[6]; [17],7.9%
same,CLSI MIC interpretation R (resistant),[6]; [17],36.8%
same,CLSI MIC interpretation S (susceptible),[6]; [17],55.3%
same,MIC50,[6]; [11],64 mg/L
same,MIC90,[6]; [11],> 64 mg/L
same,MIC50,[6]; [12],8 mg/L
same,MIC90,[6]; [12],> 64 mg/L
same,MIC50,"[6]; Table 2, broth microdilution",64 mg/L
same,MIC90,"[6]; Table 2, broth microdilution",> 64 mg/L
same,CLSI MIC interpretation (%) R,"[6]; R, resistant, CLSI breakpoints, last subgroup of Table 2",55.6%
same,CLSI MIC interpretation (%) S,"[6]; S, susceptible, CLSI breakpoints, last subgroup of Table 2",33.3%
same,CLSI MIC interpretation I (intermediate),[7],10.3%
same,CLSI MIC interpretation R (resistant),[7],44.8%
same,CLSI MIC interpretation S (susceptible),[7],44.8%
same,MIC50,[7]; [9],8 mg/L
same,MIC90,[7]; [9],64 mg/L
same,CLSI MIC interpretation I (intermediate),[8]; [18],5.5%
same,CLSI MIC interpretation R (resistant),[8]; [18],65.5%
same,MIC50,[8]; [9],32 mg/L
same,MIC90,[8]; [9],> 64 mg/L
CN(C)c1cc(NC(=O)CNC(C)(C)C)c(O)c2c1C[C@H]1C[C@H]3[C@H](N(C)C)C(O)=C(C(N)=O)C(=O)[C@@]3(O)C(O)=C1C2=O [tigecycline],CLSI MIC interpretation I (intermediate),[1]; [13],4.3^d %
same,CLSI MIC interpretation R (resistant),[1]; [13],0.5^d %
same,CLSI MIC interpretation S (susceptible),[1]; [13],95.2^d %
same,MIC Range,"[1]; All Enterobacterales (207), cefiderocol 205 isolates, fixed concentration (μg/mL) in label",0.12 to 16 mg/L
same,MIC50,[1],0.5 mg/L
same,MIC90,[1],2 mg/L
same,CLSI MIC interpretation I (intermediate),[2],5.5^d %
same,CLSI MIC interpretation R (resistant),[2],0.8^d %
same,CLSI MIC interpretation S (susceptible),[2],93.7^d %
same,MIC Range,[2]; [9],0.12 to 16 mg/L
same,MIC50,[2]; [9],1 mg/L
same,MIC90,[2]; [9],2 mg/L
same,CLSI MIC interpretation I (intermediate),[3],3.8^d %
same,CLSI MIC interpretation R (resistant),[3],0.0^d %
same,CLSI MIC interpretation S (susceptible),[3],96.3^d %
same,MIC Range,[3]; [9],0.12 to 4 mg/L
same,MIC50,[3]; [9],1 mg/L
same,MIC90,[3]; [9],2 mg/L
same,CLSI MIC interpretation I (intermediate),[4]; [14],8.1^d %
same,CLSI MIC interpretation R (resistant),[4]; [14],0.0^d %
same,CLSI MIC interpretation S (susceptible),[4]; [14],91.9^d %
same,MIC Range,[4]; [10],0.12 to 4 mg/L
same,MIC50,[4]; [10],0.5 mg/L
same,MIC90,[4]; [10],2 mg/L
same,MIC90,"[4]; MBL-producing isolates, comparators",≤ 4 mg/L
same,MIC Range,[5]; [9],0.25 to 2 mg/L
same,MIC50,[5]; [9],1 mg/L
same,MIC90,[5]; [9],1 mg/L
same,MIC Range,96 P. aeruginosa; [9],0.5 to 16 mg/L
same,MIC50,96 P. aeruginosa; [9],4 mg/L
same,MIC90,96 P. aeruginosa; [9],16 mg/L
same,MIC Range,[6]; [11],1 to 16 mg/L
same,MIC Range,[6]; [12],1 to 16 mg/L
same,MIC50,[6]; [11],4 mg/L
same,MIC90,[6]; [11],16 mg/L
same,MIC50,[6]; [12],4 mg/L
same,MIC90,[6]; [12],16 mg/L
same,MIC50,"[6]; Table 2, broth microdilution",4 mg/L
same,MIC90,"[6]; Table 2, broth microdilution",16 mg/L
same,MIC Range,"[6]; last subgroup of Table 2 (heading not shown; 45 isolates by the percentages, ceftolozane/tazobactam 0% S), broth microdilution",1 to 16 mg/L
same,CLSI MIC interpretation I (intermediate),[7],1.7^d %
same,CLSI MIC interpretation R (resistant),[7],0.0^d %
same,CLSI MIC interpretation S (susceptible),[7],98.3^d %
same,MIC Range,[7]; [9],0.12 to 4 mg/L
same,MIC50,[7]; [9],1 mg/L
same,MIC90,[7]; [9],2 mg/L
same,CLSI MIC interpretation I (intermediate),[8]; [18],10.9^d %
same,CLSI MIC interpretation R (resistant),[8]; [18],0.0^d %
same,CLSI MIC interpretation S (susceptible),[8]; [18],89.1^d %
same,MIC Range,[8]; [9],0.12 to 4 mg/L
same,MIC50,[8]; [9],1 mg/L
same,MIC90,[8]; [9],4 mg/L
